Reference: ChEMBL document CHEMBL4414665, “Dynamic Chirality in the Mechanism of Action of Allosteric CD36 Modulators of Macrophage-Driven Inflammation” (J Med Chem, 2019)
The source made the active and inactive calls. The rule behind the calls is not given here.

Key:
[1] = target: Platelet glycoprotein 4 (Rattus norvegicus) (UniProt Q07969); experiment: Displacement of photoactivated [125I]-Tyr-Bpa-Ala-hexarelin from CD36 in rat heart purified membranes
[2] = target: Platelet glycoprotein 4 (Mus musculus) (UniProt Q08857); experiment: Modulation activity at CD36 in mouse J774 cells assessed as promotion of cholesterol efflux at 100 nM pre-incubated for 17 hrs before apolipoprotein A-I addition for 4 hrs by fluorescent-labeled cholesterol kit based assay relative to control; assay type: cell-based
Platelet glycoprotein 4 (Mus musculus), sequence (Q08857 whole entry): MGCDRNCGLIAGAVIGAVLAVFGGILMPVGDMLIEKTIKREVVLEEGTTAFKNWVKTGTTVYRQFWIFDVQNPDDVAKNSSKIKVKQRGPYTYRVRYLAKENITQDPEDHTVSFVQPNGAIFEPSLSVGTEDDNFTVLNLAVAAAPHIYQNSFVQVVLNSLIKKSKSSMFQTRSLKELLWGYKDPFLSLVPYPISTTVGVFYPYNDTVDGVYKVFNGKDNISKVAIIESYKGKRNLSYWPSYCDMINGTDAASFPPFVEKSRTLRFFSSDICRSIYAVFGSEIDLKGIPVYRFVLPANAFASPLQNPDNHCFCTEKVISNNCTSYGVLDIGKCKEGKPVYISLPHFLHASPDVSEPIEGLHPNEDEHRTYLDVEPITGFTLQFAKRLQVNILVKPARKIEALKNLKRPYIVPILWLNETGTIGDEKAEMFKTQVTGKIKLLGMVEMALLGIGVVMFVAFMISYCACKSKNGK

[3] = target: Platelet glycoprotein 4 (Mus musculus) (UniProt Q08857); experiment: Modulation activity at CD36 in mouse RAW264.7 cells assessed as inhibition of TLR-2 agonist R-FSL-1-induced NO overproduction relative to control; assay type: cell-based; set-up: concentration or dose not given beside the values; conditions: concentration not given here
[4] = target: Platelet glycoprotein 4 (Rattus norvegicus) (UniProt Q07969); experiment: Displacement of photoactivated [125I]-Tyr-Bpa-Ala-hexarelin from CD36 in rat heart purified membranes relative to control; assay type: cell membranes

Platelet glycoprotein 4 (Rattus norvegicus), sequence (Q07969 whole entry): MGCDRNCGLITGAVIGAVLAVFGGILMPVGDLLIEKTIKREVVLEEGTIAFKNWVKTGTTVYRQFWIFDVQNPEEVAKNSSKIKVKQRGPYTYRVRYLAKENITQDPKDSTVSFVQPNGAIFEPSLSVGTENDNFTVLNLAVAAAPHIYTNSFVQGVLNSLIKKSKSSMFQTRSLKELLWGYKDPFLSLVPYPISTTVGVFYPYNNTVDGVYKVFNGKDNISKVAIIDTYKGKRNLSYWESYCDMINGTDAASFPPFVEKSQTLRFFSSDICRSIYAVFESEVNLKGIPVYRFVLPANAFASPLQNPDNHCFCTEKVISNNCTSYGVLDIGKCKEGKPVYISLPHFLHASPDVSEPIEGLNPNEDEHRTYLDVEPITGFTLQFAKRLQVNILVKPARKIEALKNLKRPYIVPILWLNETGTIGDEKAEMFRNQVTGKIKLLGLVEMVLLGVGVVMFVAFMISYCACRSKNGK

Row | Compound | IC50 [1] | Activity [2] | inhibition [3] | inhibition [4]
1 | C=CCN1CC#CC[C@@H](NC(=O)[C@H](C)N)C(=O)N[C@@H](C)C(=O)N[C@@H](Cc2c[nH]c3ccccc23)C(=O)N[C@H](Cc2ccccc2)C(=O)N[C@H](C(N)=O)CCCC1 | 3320 nM | 6% | 9% | 
2 | C=CCN1CC#CCN(NC(=O)[C@H](C)N)C(=O)N[C@@H](C)C(=O)N[C@@H](Cc2c[nH]c3ccccc23)C(=O)N[C@H](Cc2ccccc2)C(=O)N[C@H](C(N)=O)CCCC1 | 240 nM | 6% | 29% | 
3 | C=CCN1CC#CC[C@@H](NC(=O)[C@H](C)N)C(=O)N[C@H](Cc2c[nH]c3ccccc23)C(=O)N[C@@H](C)C(=O)N[C@@H](Cc2c[nH]c3ccccc23)C(=O)N[C@H](Cc2ccccc2)C(=O)N[C@H](C(N)=O)CCCC1 | 1040 nM | 6% | 10% | 
4 | C=CCN1CC#CC[C@H](NC(=O)[C@H](C)N)C(=O)N[C@@H](C)C(=O)N[C@@H](Cc2c[nH]c3ccccc23)C(=O)N[C@H](Cc2ccccc2)C(=O)N[C@H](C(N)=O)CCCC1 | 1470 nM | 13% | 16% | 

Now from value to compound:

Row | IC50 [1] | Activity [2] | inhibition [3] | inhibition [4] | Compound
5 | 670 nM | 17% | 20% |  | C=CCN1CC#CCN(NC(=O)[C@H](C)NC(C)=O)C(=O)N[C@H](Cc2c[nH]c3ccccc23)C(=O)N[C@@H](C)C(=O)N[C@@H](Cc2c[nH]c3ccccc23)C(=O)N[C@H](Cc2ccccc2)C(=O)N[C@H](C(N)=O)CCCC1
6 | 660 nM | 7% | 17% |  | C=CCN1CC#CC[C@H](NC(=O)[C@H](C)N)C(=O)N[C@H](Cc2c[nH]c3ccccc23)C(=O)N[C@@H](C)C(=O)N[C@@H](Cc2c[nH]c3ccccc23)C(=O)N[C@H](Cc2ccccc2)C(=O)N[C@H](C(N)=O)CCCC1
7 | 80 nM | 11% | 45% |  | C=CCN1CC#CCN(NC(=O)[C@H](C)N)C(=O)N[C@H](Cc2c[nH]c3ccccc23)C(=O)N[C@@H](C)C(=O)N[C@@H](Cc2c[nH]c3ccccc23)C(=O)N[C@H](Cc2ccccc2)C(=O)N[C@H](C(N)=O)CCCC1
8 |  |  | 18% | inactive | C=CCN1CC#CCN(N)C(=O)N[C@H](Cc2c[nH]c3ccccc23)C(=O)N[C@@H](C)C(=O)N[C@@H](Cc2c[nH]c3ccccc23)C(=O)N[C@H](Cc2ccccc2)C(=O)N[C@H](C(N)=O)CCCC1
